From patent US20240158446A1, “CYCLIC COMPOUND HAVING SELECTIVE INHIBITORY ACTION ON KRAS OVER HRAS AND NRAS” (CHUGAI SEIYAKU KABUSHIKI KAISHA, priority 2021, published 2024)
pKd: −log10 of the molar value. Read-outs that look alike come from different tables or passages of the source. *1 amine or outer side, *2 acyl side, *3 side chain or, on linkers, in order; H or OH if unused. Where a SMILES comes first, the peptide text is derived from it. Bridges are numbered along the chain shown (N, C = ends). [ ]: non-standard residue; d: D form. The star is where a group is joined. hPhe(3-Cl-4-CF3) = N[C@@H](CCc1ccc(C(F)(F)F)c(Cl)c1)C(=O)O; X40 = CC(C)CN([C@@H](Cc1ccc(C(F)(F)F)cc1)C(=O)[*:2])[*:1]; NPrPhe(4-CF3) = CCCN[C@@H](Cc1ccc(C(F)(F)F)cc1)C(=O)O; NPrPhe(4-Me) = CCCN[C@@H](Cc1ccc(C)cc1)C(=O)O; NMeGly(cPent) = CN[C@H](C(=O)O)C1CCCC1; Pro(4,4-F2) = O=C(O)[C@@H]1CC(F)(F)CN1; NMeD = CN[C@@H](CC(=O)O)C(=O)O; NMeL = CN[C@@H](CC(C)C)C(=O)O; Morpholide = C1CN(*)CCO1; NMeA = CN[C@@H](C)C(=O)O; Ac5c = NC1(C(=O)O)CCCC1; Aze = O=C(O)[C@@H]1CCN1; Sar = CNCC(=O)O

What was measured:
[1] = target: GDP-bound KRAS wild-type protein (Homo sapiens, UniProt P01116); experiment: Binding to KRAS by surface plasmon resonance (SPR), Single Cycle Kinetics; details: GDP-bound KRAS wild-type protein, read-out: KRAS KD
Chain of GDP-bound KRAS wild-type protein (P01116 whole entry): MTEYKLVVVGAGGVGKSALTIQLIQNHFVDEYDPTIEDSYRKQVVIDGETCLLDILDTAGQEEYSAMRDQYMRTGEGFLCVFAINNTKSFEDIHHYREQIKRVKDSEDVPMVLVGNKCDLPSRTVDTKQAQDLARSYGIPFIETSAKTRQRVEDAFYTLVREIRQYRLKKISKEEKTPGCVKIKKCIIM

[2] = target: GDP-bound NRAS wild-type protein (Homo sapiens, UniProt P01111); experiment: Binding to NRAS by surface plasmon resonance (SPR), Single Cycle Kinetics; details: for NRAS/KRAS (ratio of KD value for NRAS to KD value for KRAS) / NRAS/KRAS (ratio of KD value with respect to NRAS to KD value with respect to KRAS): SPR, GDP-bound NRAS wild-type protein vs GDP-bound KRAS wild-type protein
Chain of GDP-bound NRAS wild-type protein (P01111 whole entry): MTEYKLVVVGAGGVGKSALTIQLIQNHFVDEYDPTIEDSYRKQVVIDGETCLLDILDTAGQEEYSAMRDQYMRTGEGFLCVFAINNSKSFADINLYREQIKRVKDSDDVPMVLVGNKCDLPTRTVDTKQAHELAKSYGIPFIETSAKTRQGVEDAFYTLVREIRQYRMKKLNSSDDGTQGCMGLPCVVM

[3] = target: GDP-bound HRAS wild-type protein (Homo sapiens, UniProt P01112); experiment: Binding to HRAS by surface plasmon resonance (SPR), Single Cycle Kinetics; details: for HRAS/KRAS (ratio of KD value for HRAS to KD value for KRAS) / HRAS/KRAS (ratio of KD value with respect to HRAS to KD value with respect to KRAS): SPR, GDP-bound HRAS wild-type protein vs GDP-bound KRAS wild-type protein
Chain of GDP-bound HRAS wild-type protein (P01112 whole entry): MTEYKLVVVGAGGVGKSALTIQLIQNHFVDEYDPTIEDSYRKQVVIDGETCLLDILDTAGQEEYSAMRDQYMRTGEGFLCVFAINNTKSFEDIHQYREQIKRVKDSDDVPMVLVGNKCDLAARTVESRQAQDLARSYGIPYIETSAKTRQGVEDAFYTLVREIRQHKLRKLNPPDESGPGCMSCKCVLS

[4] = SPR Single Cycle Kinetics, 1:1 binding model

| SMILES | pKd ([1]; SPR, Single Cycle Kinetics) | NRAS/KRAS (ratio of KD value for NRAS to KD value for KRAS) [2] | HRAS/KRAS (ratio of KD value for HRAS to KD value for KRAS) [3] | pKd [1, 4] | NRAS/KRAS (ratio of KD value with respect to NRAS to KD value with respect to KRAS) [2] | HRAS/KRAS (ratio of KD value with respect to HRAS to KD value with respect to KRAS) [3] | NRAS/KRAS (ratio of KD value with respect to GDP-bound NRAS wild-type protein to KD value with respect to KRAS) ([2]; SPR KD ratio NRAS/KRAS, class symbols) | HRAS/KRAS (ratio of KD value with respect to GDP-bound HRAS wild-type protein to KD value with respect to KRAS) ([3]; SPR KD ratio HRAS/KRAS, class symbols) |
| --- | --- | --- | --- | --- | --- | --- | --- | --- |
| CCO[C@@H]1C[C@H]2C(=O)NC3(CCC3)C(=O)N(C)[C@@H](C3CCCC3)C(=O)N(C)[C@H](C(=O)N3CCOCC3)CC(=O)N(C)[C@@H](COC)C(=O)N[C@@H]([C@@H](C)CC)C(=O)N(C)CC(=O)N(C)[C@H]3CCCCCN(C3=O)[C@@H](Cc3ccc(C(F)(F)F)cc3)C(=O)N(C)CC(=O)N[C@@H](CCc3ccc(C(F)(F)F)c(Cl)c3)C(=O)N2C1 [PP0849] | 9.34 | B (a compound having 3 or more and less than 10 is denoted as B) | B (a compound having 3 or more and less than 10 is denoted as B) |  |  |  |  |  |
| CC[C@H](C)[C@@H]1NC(=O)[C@H](CC(C)C)N(C)C(=O)C[C@@H](C(=O)N2CCOCC2)N(C)C(=O)[C@H](C2CCCC2)N(C)C(=O)C2(CCCC2)NC(=O)[C@@H]2CCCN2C(=O)[C@H](CCc2cc(F)c(C(F)(F)F)c(F)c2)NC(=O)CN(C)C(=O)[C@H](Cc2ccc(C(F)(F)F)cc2)N2CCCCC[C@@H](C2=O)N(C)C(=O)[C@@H]2CCCN2C1=O [PP0485] |  |  |  | 7.55 | A (a compound having 10 or more and less than 20 is denoted as A) | B (a compound having 3 or more and less than 10 is denoted as B) |  |  |
| CCO[C@@H]1C[C@H]2C(=O)NC3(CCC3)C(=O)N(C)[C@@H](C3CCCC3)C(=O)N(C)[C@H](C(=O)N3CCOCC3)CC(=O)N(CC)[C@@H](CC(C)C)C(=O)N[C@@H]([C@@H](C)CC)C(=O)N(C)CC(=O)N(C)[C@H]3CC(C)=CCN(C3=O)[C@@H](Cc3ccc(C(F)(F)F)cc3)C(=O)N(C)CC(=O)N[C@@H](CCc3cc(F)c(C(F)(F)F)c(F)c3)C(=O)N2C1 [PP1044] | 8.74 | C (A compound having a KD ratio of 0.1 or more and less than 3 is denoted as C) | C (A compound having a KD ratio of 0.1 or more and less than 3 is denoted as C) |  |  |  |  |  |
| CCC[C@H]1C(=O)N[C@@H]([C@@H](C)CC)C(=O)N(C)CC(=O)N(C)[C@H]2C/C=C\CCN(C2=O)[C@@H](Cc2ccc(C)cc2)C(=O)N(C)CC(=O)N[C@@H](CCc2cc(Cl)c3c(ccn3C)c2)C(=O)N2C[C@H](OCC)C[C@H]2C(=O)NC2(CC(C)(C)C2)C(=O)N(C)[C@@H](C(CC)CC)C(=O)N(C)[C@H](C(=O)N(C)C)CC(=O)N1C [PP2898] |  |  |  | 8.32 |  |  | A (a compound having 10 or more and less than 20 is denoted as A) | A (a compound having 10 or more and less than 20 is denoted as A) |
| CCO[C@@H]1C[C@H]2C(=O)NC3(CCC3)C(=O)N(C)[C@@H](C3CCCC3)C(=O)N(C)[C@H](C(=O)N(C)C)CC(=O)N(C)[C@@H](CC)C(=O)N[C@@H]([C@@H](C)CC)C(=O)N(C)CC(=O)N(C)[C@H]3CCCCN(C3=O)[C@@H](Cc3ccc(C(F)(F)F)cc3)C(=O)N(C)CC(=O)N[C@@H](CCc3cc(Cl)c(Cl)c(Cl)c3)C(=O)N2C1 [PP0988] | 10.34 | C (A compound having a KD ratio of 0.1 or more and less than 3 is denoted as C) | B (a compound having 3 or more and less than 10 is denoted as B) |  |  |  |  |  |
| CCCN1C(=O)CN(C)C(=O)CNC(=O)[C@H]([C@@H](C)CC)NC(=O)[C@H](CC(C)C)N(C)C(=O)C[C@@H](C(=O)N(C)C)N(C)C(=O)[C@H](C2CCCC2)N(C)C(=O)C2(CCCC2)NC(=O)[C@@H]2CCCN2C(=O)[C@H](CCc2ccc(C(F)(F)F)c(Cl)c2)NC(=O)CN(C)C(=O)[C@@H]1Cc1ccc(C(F)(F)F)cc1 [PP0417] ([NMeL]IG[Sar][NPrPhe(4-CF3)][Sar][hPhe(3-Cl-4-CF3)]P[Ac5c][NMeGly(cPent)][NMeD]-NMe2; lactam N-11) |  |  |  | 10.13 | B (a compound having 3 or more and less than 10 is denoted as B) | C (A compound having a KD ratio of 0.1 or more and less than 3 is denoted as C) |  |  |
| CC[C@H](C)[C@@H]1NC(=O)[C@H](CC(C)C)N(C)C(=O)C[C@@H](C(=O)N2CCOCC2)N(C)C(=O)[C@H](C2CCCC2)N(C)C(=O)C2(CCCC2)NC(=O)[C@@H]2CCCN2C(=O)[C@H](CCc2ccc(C(F)(F)F)c(Cl)c2)NC(=O)CN(C)C(=O)[C@H](Cc2ccc(C(F)(F)F)cc2)N(CC(C)C)C(=O)CN(C)C(=O)CN(C)C1=O [PP0121] ([NMeL]I[Sar][Sar][X40][Sar][hPhe(3-Cl-4-CF3)]P[Ac5c][NMeGly(cPent)][NMeD]-Morpholide; lactam N-11) |  | C (A compound having a KD ratio of 0.1 or more and less than 3 is denoted as C) | C (A compound having a KD ratio of 0.1 or more and less than 3 is denoted as C) | 8.68 |  |  |  |  |
| CCCN1C(=O)CN(C)C(=O)CN(C)C(=O)[C@H]([C@@H](C)CC)NC(=O)[C@H](CC(C)C)N(C)C(=O)C[C@@H](C(=O)N2CCOCC2)N(C)C(=O)[C@H](C2CCCC2)N(C)C(=O)C2(CCCC2)NC(=O)[C@@H]2CCCN2C(=O)[C@H](CCc2ccc(C(F)(F)F)c(Cl)c2)NC(=O)CN(C)C(=O)[C@@H]1Cc1ccc(C)cc1 [PP0059] ([NMeL]I[Sar][Sar][NPrPhe(4-Me)][Sar][hPhe(3-Cl-4-CF3)]P[Ac5c][NMeGly(cPent)][NMeD]-Morpholide; lactam N-11) |  | B (a compound having 3 or more and less than 10 is denoted as B) | C (A compound having a KD ratio of 0.1 or more and less than 3 is denoted as C) | 9.82 |  |  |  |  |
| CCO[C@@H]1C[C@H]2C(=O)NC3(CCC3)C(=O)N(C)[C@@H](C3CCCC3)C(=O)N(C)[C@H](C(=O)N(C)C)CC(=O)N(C)[C@@H](CC(C)(C)C)C(=O)N[C@@H]([C@@H](C)CC)C(=O)N(C)CC(=O)N(C)[C@H]3CCCCN(C3=O)[C@@H](Cc3ccc(C(F)(F)F)cc3)C(=O)N(C)CC(=O)N[C@@H](CCc3cc(F)c(C(F)(F)F)c(F)c3)C(=O)N2C1 [PP0699] |  |  |  | 10.44 | C (A compound having a KD ratio of 0.1 or more and less than 3 is denoted as C) | C (A compound having a KD ratio of 0.1 or more and less than 3 is denoted as C) |  |  |
| CCCN1C(=O)[C@@H]2CCN2C(=O)[C@H](C)N(C)C(=O)[C@H]([C@@H](C)CC)NC(=O)[C@H](CC(C)C)N(C)C(=O)C[C@@H](C(=O)N2CCOCC2)N(C)C(=O)[C@H](C2CCCC2)N(C)C(=O)C2(CCCC2)NC(=O)[C@@H]2CCN2C(=O)[C@H](CCc2ccc(C(F)(F)F)c(Cl)c2)NC(=O)CN(C)C(=O)[C@@H]1Cc1ccc(C(F)(F)F)cc1 [PP0281] ([NMeL]I[NMeA][Aze][NPrPhe(4-CF3)][Sar][hPhe(3-Cl-4-CF3)][Aze][Ac5c][NMeGly(cPent)][NMeD]-Morpholide; lactam N-11) |  | C (A compound having a KD ratio of 0.1 or more and less than 3 is denoted as C) | C (A compound having a KD ratio of 0.1 or more and less than 3 is denoted as C) | 9.32 |  |  |  |  |
| CCCN1C(=O)CN(C)C(=O)CNC(=O)[C@H]([C@@H](C)CC)NC(=O)[C@H](CC(C)C)N(C)C(=O)C[C@@H](C(=O)N2CCOCC2)N(C)C(=O)[C@H](C2CCCC2)N(C)C(=O)C2(CCCC2)NC(=O)[C@@H]2CC(F)(F)CN2C(=O)[C@H](CCc2ccc(C(F)(F)F)c(Cl)c2)NC(=O)CN(C)C(=O)[C@@H]1Cc1ccc(C(F)(F)F)cc1 [PP0394] ([NMeL]IG[Sar][NPrPhe(4-CF3)][Sar][hPhe(3-Cl-4-CF3)][Pro(4,4-F2)][Ac5c][NMeGly(cPent)][NMeD]-Morpholide; lactam N-11) |  | C (A compound having a KD ratio of 0.1 or more and less than 3 is denoted as C) | C (A compound having a KD ratio of 0.1 or more and less than 3 is denoted as C) | 9.62 |  |  |  |  |
| CCO[C@@H]1C[C@H]2C(=O)NC3(CCC3)C(=O)N(C)[C@@H](C3CCCC3)C(=O)N(C)[C@H](C(=O)N3CCOCC3)CC(=O)N(C)[C@@H](Cc3ccccc3C)C(=O)N[C@@H]([C@@H](C)CC)C(=O)N(C)CC(=O)N(C)[C@H]3CCCCCN(C3=O)[C@@H](Cc3ccc(C(F)(F)F)cc3)C(=O)N(C)CC(=O)N[C@@H](CCc3cc(F)c(C(F)(F)F)c(F)c3)C(=O)N2C1 [PP0931] | 8.72 | A (a compound having 10 or more and less than 20 is denoted as A) | B (a compound having 3 or more and less than 10 is denoted as B) |  |  |  |  |  |
| CC[C@H](C)[C@@H]1NC(=O)[C@H](CC(C)C)N(C)C(=O)C[C@@H](C(=O)N2CCOCC2)N(C)C(=O)[C@H](C2CCCC2)N(C)C(=O)C2(CCCC2)NC(=O)[C@@H]2CCCN2C(=O)[C@H](CCc2cc(F)c(C(F)(F)F)c(F)c2)NC(=O)CN(C)C(=O)[C@H](Cc2ccc(C(F)(F)F)cc2)N2CCCC[C@@H](C2=O)N(C)C(=O)[C@H](C)N(C)C1=O [PP0544] |  |  |  | 7.74 | B (a compound having 3 or more and less than 10 is denoted as B) | B (a compound having 3 or more and less than 10 is denoted as B) |  |  |
